# Results from patent US20030148267A1, “Screening assay for hepatitis C virus antiviral agents” (priority 2001, published 2003).
# Several values for one entry are separate records, joined by “and”; a condition that tells them apart may be missing. Identical values can stand only once. Entries after “also recorded” stand apart in the source; their conditions may differ.
# Columns and labels:
# HCV RNA = HCV RNA quasispecies analysis (mutation rate) in transfected/infected CV-1 cells; assay type: cell-based, hepatitis C virus (genotype 1a, strain H77); design: nucleotide substitutions / substitutions / error generation / dN/dS (nonsynonymous/synonymous mutation): unit of the concentration uncertain
# Experimental: Twenty-four hours post-vvT7, cells were lysed and RNA was extracted by TRIzol (GIBCO/BRL), DNase I-treated (Roche Molecular Biochemicals), and phenol-chloroform extracted.
# RT-PCR was performed for the 5′UTR, core, E2-HVR1, NS5A and NS5B regions using region-specific primers: […]
# RT was carried out on extracted RNA using AMV reverse transcriptase (Perkin-Elmer) using standard conditions. 25 cycles of PCR were carried out using 25 pmol each of the relevant sense and antisense primers, 0.5 mM of each dNTP, 1.5 mM MgCl2, and 0.5 units of Taq polymerase (Perkin-Elmer).
# Amplicons were cloned using the TOPO-PCR system (Invitrogen). Between 11 and 20 individual transformants corresponding to each region were sequenced bidirectionally by the ABI Prism automated sequencer, using primers flanking the insert. Synonymous and non-synonymous substitutions at variance from the parent pT7flHCV-Rz and pT7HCVDBglII-Rz sequences were determined and error generation rates calculated as nucleotide substitutions/total nucleotides sequenced. Sequences were aligned, and quasispecies diversity rates were compared between groups by using the statistical package SPSS 9.0.
# HCV (−) RNA synthesis = assay: HCV (−) strand RNA synthesis in binary HCV expression system (RNase protection assay, strand-specific RT-PCR); assay type: cell-based, hepatitis C virus (genotype 1a, strain H77); settings: for HCV (−) strand results with other timing of the drug: drug given 0 and 12 hours before vTF7-3 infection instead of 20 hours; for HCV replicative strand synthesis: the two RBV doses (50 and 400)
# HSV-1 = HSV-1 plaque formation in CV-1 cells; assay type: cell-based; settings: the two RBV doses (50 and 400); listed as RBV
# [1] = RBV 50, E2 (HVR-1), listed as REV
compound,measurement,setting,value
interferon-α-2b,Total Mutations (all regions),"HCV RNA; IFN 100,000",30
same,MUTANT CLONES (%),"HCV RNA; IFN 100,000, all regions",19(30%)
same,Non-Syn/Syn Substitutions,"HCV RNA; IFN 100,000, all regions",20/10
same,5′ UTR sequences,"HCV RNA; IFN 100,000 U",remained invariant
same,ERROR GEN RATE,"HCV RNA; IFN 100,000U, 5′UTR",0 X 10^−3
same,MUTANT CLONES (%),"HCV RNA; IFN 100,000U, 5′UTR",0
same,NONSYN/SYN SUBS,"HCV RNA; IFN 100,000U, 5′UTR",0
same,MUTANT CLONES (%),"HCV RNA; IFN 100,000U, CORE",4(36%)
same,NONSYN/SYN SUBS,"HCV RNA; IFN 100,000U, CORE",2/2
same,Transition Mutations T to C,"HCV RNA; IFN 100,000U, CORE",2
same,ERROR GEN RATE,"HCV RNA; IFN 100,000U, CORE, listed as IFN",0.8^5 X 10^−3 and 0.8 X 10^−3
same,ERROR GEN RATE,"HCV RNA; IFN 100,000U, E2",2.8^6 X 10^−3
same,MUTANT CLONES (%),"HCV RNA; IFN 100,000U, E2",10(83%)
same,NONSYN/SYN SUBS,"HCV RNA; IFN 100,000U, E2",10/6
same,Transition Mutations A to G,"HCV RNA; IFN 100,000U, E2",4
same,Transition Mutations C to T,"HCV RNA; IFN 100,000U, E2",2
same,Transition Mutations T to C,"HCV RNA; IFN 100,000U, E2",9
same,stop codon,"HCV RNA; IFN 100,000U, E2",1
same,ERROR GEN RATE,"HCV RNA; IFN 100,000U, NS5A",1.4 X 10^−3
same,MUTANT CLONES (%),"HCV RNA; IFN 100,000U, NS5A",3(16%)
same,NONSYN/SYN SUBS,"HCV RNA; IFN 100,000U, NS5A",5/1
same,Transition Mutations A to G,"HCV RNA; IFN 100,000U, NS5A",1
same,Transition Mutations C to A,"HCV RNA; IFN 100,000U, NS5A",2
same,Transition Mutations T to C,"HCV RNA; IFN 100,000U, NS5A",1
same,ERROR GEN RATE,"HCV RNA; IFN 100,000U, NS5B",0.9 X 10^−3
same,MUTANT CLONES (%),"HCV RNA; IFN 100,000U, NS5B",2(18%)
same,NONSYN/SYN SUBS,"HCV RNA; IFN 100,000U, NS5B",3/1
same,dN/dS (nonsynonymous/synonymous mutation),"HCV RNA; IFN-α, all regions tested",2.0
same,HCV (−) RNA synthesis,"HCV (−) RNA synthesis; doses from 2000 to 15,000 units/well, CV-1 cells",dose-dependent inhibition
same,HCV core protein synthesis,HCV core protein,dose-responsive inhibition
NC(=O)c1ncn([C@@H]2O[C@H](CO)[C@@H](O)[C@H]2O)n1 [ribavirin],error generation throughout the viral genome compared with the lower dose,"HCV RNA; 400 mM vs 50 mM, differences not statistically significant",to a lesser degree than that observed at the lower dose
same,nucleotide substitutions,"HCV RNA; 50 (unit uncertain), HVR-1 region",15
same,substitutions,"HCV RNA; 50 (unit uncertain), core region",12
same,error generation,"HCV RNA; 400 (unit uncertain), across all regions",0.6-1.2 ×10^−3
same,Total Mutations (all regions),HCV RNA; RBV 50,54
same,ERROR GEN RATE,"HCV RNA; RBV 50, 5′UTR",0.7 X 10^−3
same,MUTANT CLONES (%),"HCV RNA; RBV 50, 5′UTR",3(20%)
same,NONSYN/SYN SUBS,"HCV RNA; RBV 50, 5′UTR",0/3
same,Transition Mutations T to C,"HCV RNA; RBV 50, 5′UTR",2
same,NONSYN/SYN SUBS,"HCV RNA; RBV 50, CORE",8/4
same,Transition Mutations C to T,"HCV RNA; RBV 50, CORE",2
same,Transition Mutations T to C,"HCV RNA; RBV 50, CORE",2
same,insertions (resulting in stop codons),"HCV RNA; RBV 50, CORE",2 insertions
same,ERROR GEN RATE,"HCV RNA; RBV 50, CORE, listed as RBV",1.9^1 X 10^−3
same,ERROR GEN RATE,"HCV RNA; RBV 50, CORE, listed as REV",1.9^2 X 10^−3
same,MUTANT CLONES (%),"HCV RNA; RBV 50, CORE, listed as REV",7(50%)
same,nt-insertions,"HCV RNA; RBV 50, CORE, listed as REV",4 nt-insertions
same,NONSYN/SYN SUBS,"HCV RNA; RBV 50, E2",11/4
same,Transition Mutations A to G,"HCV RNA; RBV 50, E2",4
same,Transition Mutations C to T,"HCV RNA; RBV 50, E2",1
same,Transition Mutations G to A,"HCV RNA; RBV 50, E2",1
same,Transition Mutations T to C,"HCV RNA; RBV 50, E2",6
same,insertions (resulting in stop codons),"HCV RNA; RBV 50, E2",2 insertions
same,ERROR GEN RATE,"HCV RNA; RBV 50, E2 (HVR-1), listed as RBV",1.7 X 10^−3 and 1.5^2 X 10^−3
same,ERROR GEN RATE,HCV RNA; [1],1.5 X 10^−3
same,MUTANT CLONES (%),HCV RNA; [1],12(60%)
same,nt-deletion,HCV RNA; [1],1 nt-deletion
same,nt-insertion,HCV RNA; [1],1 nt-insertion
same,ERROR GEN RATE,"HCV RNA; RBV 50, NS5A",2.5^3 X 10^−3
same,MUTANT CLONES (%),"HCV RNA; RBV 50, NS5A",5(20%)
same,NONSYN/SYN SUBS,"HCV RNA; RBV 50, NS5A",12/0
same,Transition Mutations A to G,"HCV RNA; RBV 50, NS5A",1
same,Transition Mutations C to T,"HCV RNA; RBV 50, NS5A",1
same,ERROR GEN RATE,"HCV RNA; RBV 50, NS5B",1.7 X 10^−3
same,Transition Mutations A to G,"HCV RNA; RBV 50, NS5B",2
same,Transition Mutations C to T,"HCV RNA; RBV 50, NS5B",1
same,Transition Mutations G to A,"HCV RNA; RBV 50, NS5B",4
same,MUTANT CLONES (%),"HCV RNA; RBV 50, NS5B, listed as RBV",7(39%)
same,NONSYN/SYN SUBS,"HCV RNA; RBV 50, NS5B, listed as RBV",9/3
same,NONSYN/SYN SUBS,"HCV RNA; RBV 50, NS5B, listed as REV",9/4
same,MUTANT CLONES (%),"HCV RNA; RBV 50, all regions",29(33%)
same,Non-Syn/Syn Substitutions,"HCV RNA; RBV 50, all regions",40/14
same,dose-responsiveness of mutations,HCV RNA; RBV 50 vs 400,not a demonstrable dose-responsiveness
same,Total Mutations (all regions),HCV RNA; RBV 400,31
same,ERROR GEN RATE,"HCV RNA; RBV 400, 5′UTR",0.7 X 10^−3
same,MUTANT CLONES (%),"HCV RNA; RBV 400, 5′UTR",3(21%)
same,NONSYN/SYN SUBS,"HCV RNA; RBV 400, 5′UTR",0/3
same,Transition Mutations A to G,"HCV RNA; RBV 400, 5′UTR",1
same,Transition Mutations G to A,"HCV RNA; RBV 400, 5′UTR",1
same,MUTANT CLONES (%),"HCV RNA; RBV 400, CORE",4(20%)
same,NONSYN/SYN SUBS,"HCV RNA; RBV 400, CORE",5/1
same,Transition Mutations A to G,"HCV RNA; RBV 400, CORE",1
same,Transition Mutations C to T,"HCV RNA; RBV 400, CORE",2
same,Transition Mutations G to A,"HCV RNA; RBV 400, CORE",1
same,Transition Mutations T to C,"HCV RNA; RBV 400, CORE",1
same,ERROR GEN RATE,"HCV RNA; RBV 400, CORE, listed as RBV",0.6^4 X 10^−3 and 0.6 X 10^−3
same,MUTANT CLONES (%),"HCV RNA; RBV 400, E2",7(35%)
same,Transition Mutations A to G,"HCV RNA; RBV 400, E2",3
same,Transition Mutations C to T,"HCV RNA; RBV 400, E2",2
same,Transition Mutations G to A,"HCV RNA; RBV 400, E2",1
same,Transition Mutations T to C,"HCV RNA; RBV 400, E2",1
same,insertions,"HCV RNA; RBV 400, E2",2 insertions
same,ERROR GEN RATE,"HCV RNA; RBV 400, E2, listed as RBV",1.2 X 10^−3 and 1.2^4 X 10^−3
same,NONSYN/SYN SUBS,"HCV RNA; RBV 400, E2, listed as RBV",9/4 and 7/5
same,ERROR GEN RATE,"HCV RNA; RBV 400, NS5A",0.9 X 10^−3
same,MUTANT CLONES (%),"HCV RNA; RBV 400, NS5A",2(14%)
same,NONSYN/SYN SUBS,"HCV RNA; RBV 400, NS5A",3/0
same,ERROR GEN RATE,"HCV RNA; RBV 400, NS5B",1 X 10^−3
same,MUTANT CLONES (%),"HCV RNA; RBV 400, NS5B",6(35%)
same,NONSYN/SYN SUBS,"HCV RNA; RBV 400, NS5B",5/2
same,Transition Mutations A to G,"HCV RNA; RBV 400, NS5B",2
same,Transition Mutations G to A,"HCV RNA; RBV 400, NS5B",1
same,Transition Mutations T to C,"HCV RNA; RBV 400, NS5B",2
same,MUTANT CLONES (%),"HCV RNA; RBV 400, all regions",25(30%)
same,Non-Syn/Syn Substitutions,"HCV RNA; RBV 400, all regions",20/11
same,induction of mutations / error generation in the HCV genome,"HCV RNA; RBV, all regions tested, listed as RBV",induces mutations across all regions; also recorded: increases error generation
same,dN/dS (nonsynonymous/synonymous mutation),"HCV RNA; ribavirin at 50 (unit uncertain), all regions tested",2.85
same,additional RNA inhibitory effects,HCV (−) RNA synthesis; RBV added to IFN,not seen
same,HCV (−) RNA synthesis,HCV (−) RNA synthesis; doses of 10-200 mg/well,No inhibitory effect; also recorded: Neither ribavirin nor amantadine demonstrated direct activity
same,HCV (−) strand results with other timing of the drug,HCV (−) RNA synthesis,unchanged
same,HCV replicative strand synthesis,HCV (−) RNA synthesis,no effect
same,HCV replicative strand synthesis,HCV (−) RNA synthesis; listed as RBV,no direct decrease
same,HSV-1 plaque formation in CV-1 cells,HSV-1,activity against HSV-1
NC12CC3CC(CC(C3)C1)C2 [amantadine],HCV (−) strand synthesis,HCV (−) RNA synthesis; doses 1-100 mg/well,no activity; also recorded: Neither ribavirin nor amantadine demonstrated direct activity
same,HCV (−) strand results with other timing of the drug,HCV (−) RNA synthesis,unchanged
